# Values of other authors as cited in patent US20050176650A1, “Stable parenteral formulation of levomepromazine and a method for stabilizing said formulation” (Xanodyne Pharmacal, Inc., priority 2004, published 2005).
# Key:
# [1] = prior art description
# traumatic shock = conditions: rats; prior art description
# [2] = rats; prior art description
smiles,measurement,setting,value
"COc1ccc2c(c1)N(C[C@H](C)CN(C)C)c1ccccc1S2 [Levomepromazine, (−)-(2R)-3-(2-methoxy-10H-phenothiazin-10-yl)-N,N,2-trimethylpropan-1-amine]","hypothermic action, potency relative to chlorpromazine",[1],three times more potent than that of chlorpromazine
same,protection against traumatic shock,traumatic shock,readily protect against traumatic shock
same,local anesthesia following parasciatic injections,[2],produce deep local anesthesia
